US20040209318A1, “Reagents and methods for the detection and quantification of vancomycin in bilogical fluids” (priority 1995, published 2004)
One block for each compound: values may come before it.

Legend:
[1] = target: anti-vancomycin Fab fragment; test: BIAcore solution competition, equilibrium dissociation constant; format: binding, mouse; conditions: in solution, 20 nM Fab fragment; read-out: Equilibrium Dissociation Constant (KD)
Procedure: Biosensor surfaces were regenerated after each injection with successive 1 minute pulses of 6 M, 6M, and 1.5 M guanidine hydrochloride. Initial rates of binding of anti-vancomycin Fab fragment to the biosensor surface were measured over a 15 second window beginning 20 seconds postinjection. Data was evaluated by non-linear regression analysis using the solution affinity model built into BIAevaluation 3.0 software (BIAcore, Inc).
The binding affinities of several vancomycin analogs and tracers for anti-vancomycin Fab fragment were determined from solution competition experiments carried out on a BIAcore 2000. Initially, known concentrations of anti-vancomycin Fab fragment (0-22 nM) were injected over the aminoalkyl vancomycin biosensor surface. The initial rate of binding for each anti-vancomycin Fab fragment concentration was obtained by averaging the observed binding rate over a […] window beginning 20 seconds post injection. Data from the first 20 seconds of each sensorgram were omitted due to sample dispersion effects at the start of injections. A plot of initial binding rate versus concentration of anti-vancomycin Fab fragment was fit using a 4-parameter logistic (general model in BIAevaluation 3.0) providing a standard curve. […] A fixed concentration of anti-vancomycin Fab fragment (20 nM) was then mixed with twelve concentrations of each vancomycin analog or tracer and allowed to reach equilibrium. The equilibrium mixtures were individually injected over the aminoalkyl vancomycin biosensor surface, and the concentration of free anti-vancomycin Fab fragment remaining was quantitated by determination of the initial rate of binding to the biosensor surface as described above. A plot of free anti-vancomycin Fab fragment versus total concentration of added analog or tracer provides a competition curve. […] The data points represent the experimentally determined concentrations of free anti-vancomycin Fab fragment in equilibrium solutions at a given concentration of soluble analog or tracer. The curves represent the best nonlinear fit of the data using equation 1 (solution affinity model in BIAevaluation software) below: [formula]
where Fabτ is the concentration of free anti-vancomycin Fab fragment in equilibrium solutions, Fabτ is the total concentration of anti-vancomycin Fab fragment in solution (20 nM), A is the total concentration of added vancomycin analog or tracer, and KD is the equilibrium dissociation constant for the binding of the vancomycin analog or tracer to anti-vancomycin Fab fragment in solution.

[2] = tested on: monoclonal antibody #15-109-592; test: Fluorescence polarization immunoassay of the present invention, cross reactivity; format: binding, mouse; conditions: for PRESENT INVENTION VALUES / PRESENT INVENTION cross reactivity: 0 ug/mL vancomycin
[3] = tested on: sheep polyclonal antibodies against vancomycin; test: commercially available Abbott Vancomycin assay (TDX/TDXFLX FPIA), cross reactivity; format: binding; conditions: for COMMERCIAL ASSAY VALUES / COMMERCIAL ASSAY cross reactivity: 0 ug/mL vancomycin
Text: Commercially available fluorescent polarization assays (FPIA) for vancomycin are available. For instance, commercially available assays (Abbott […]® assays, (hereinafter referred to as the “commercially available Abbott Vancomycin assays(s)”)) include reagents for the quantitative measurement of vancomycin in serum or plasma samples. These assays use a vancomycin derivative labeled with a dichlorotriazinylaminofluorescein (DTAF) (hereinafter referred to as the “commercially available tracer”), and sheep polyclonal antibodies against vancomycin (hereinafter referred to as “commercially available antibodies”). […] In contrast, the commercially available vancomycin assay has elevated levels of CDP-I cross reactivity ranging from 39.58% to 65% with or without vancomycin present. […] (Refer to Table 3 for CDP-I cross-reactivity data.)

[4] = 40 ug/mL vancomycin, 1 ug/mL CDP-I
[5] = 40 ug/mL vancomycin, 10 ug/mL CDP-I
[6] = 40 ug/mL vancomycin, 50 ug/mL CDP-I
[7] = 40 ug/mL vancomycin, 100 ug/mL CDP-I
[8] = 80 ug/mL vancomycin, 1 ug/mL CDP-I
[9] = 80 ug/mL vancomycin, 10 ug/mL CDP-I
[10] = 80 ug/mL vancomycin, 50 ug/mL CDP-I
[11] = 80 ug/mL vancomycin, 100 ug/mL CDP-I

Kd [1]: ≥ 50000 nM
Compound: AglucoCDP [compound 11]

Kd [1]: 42000 nM
Compound: aglucovancomycin [compound 6]

Kd [1]: ≤ 0.2 nM
Compound: CC(C)CC(C(=O)NC1C(=O)NC(CC(N)=O)C(=O)NC2C(=O)NC3C(=O)NC(C(=O)NC(C(=O)O)c4cc(O)cc(O)c4-c4cc3ccc4O)C(O)c3ccc(c(Cl)c3)Oc3cc2cc(c3OC2OC(CO)C(O)C(O)C2OC2CC(C)(N)C(O)C(C)O2)Oc2ccc(cc2Cl)C1O)N(C)C(=O)CCCCC1SCC2NC(=O)NC21 (centres unmarked) [compound 16]

Kd [1]: 488 ± 34 nM
Compound: Crystalline degradation product (CDP) [compound 10]

Kd [1]: 6000 nM
Compound: Ring-2 dechloro CDP [compound 12]

Second part, the compound before the results:

Compound: Ring-2 dechlorovancomycin [compound 8]
Kd [1]: 87 ± 4 nM

Compound: N-acetylvancosaminylvancomycin [compound 7]
Kd [1]: ≤ 0.2 nM

Compound: CNC(CC(C)C)C(=O)NC1C(=O)NC(C(=O)O)CC(=O)NC2C(=O)NC3C(=O)NC(C(=O)NC(C(=O)O)c4cc(O)cc(O)c4-c4cc3ccc4O)C(O)c3ccc(c(Cl)c3)Oc3cc2cc(c3OC2OC(CO)C(O)C(O)C2OC2CC(C)(N)C(O)C(C)O2)Oc2ccc(cc2Cl)C1O (centres unmarked) [CDP-I, Crystalline Degradation Product I]
PRESENT INVENTION VALUES ([2]; CDP-I 1 ug/mL): 0.22 µg/mL
PRESENT INVENTION cross reactivity ([2]; CDP-I 1 ug/mL): N.D. (Less than sensitivity at 2.00 ug/mL vancomycin)
PRESENT INVENTION VALUES ([2]; CDP-I 2.5 ug/mL): 0.15 µg/mL
PRESENT INVENTION cross reactivity ([2]; CDP-I 2.5 ug/mL): N.D. (Less than sensitivity at 2.00 ug/mL vancomycin)
PRESENT INVENTION VALUES ([2]; CDP-I 5 ug/mL): 0.26 µg/mL
PRESENT INVENTION cross reactivity ([2]; CDP-I 5 ug/mL): N.D. (Less than sensitivity at 2.00 ug/mL vancomycin)
PRESENT INVENTION VALUES ([2]; CDP-I 7 ug/mL): LOW
PRESENT INVENTION cross reactivity ([2]; CDP-I 7 ug/mL): N.D. (Less than sensitivity at 2.00 ug/mL vancomycin)
PRESENT INVENTION VALUES ([2]; CDP-I 10 ug/mL): 0.13 µg/mL
PRESENT INVENTION cross reactivity ([2]; CDP-I 10 ug/mL): N.D. (Less than sensitivity at 2.00 ug/mL vancomycin)
PRESENT INVENTION VALUES ([2]; CDP-I 15 ug/mL): LOW
PRESENT INVENTION cross reactivity ([2]; CDP-I 15 ug/mL): N.D. (Less than sensitivity at 2.00 ug/mL vancomycin)
PRESENT INVENTION VALUES ([2]; CDP-I 20 ug/mL): 0.46 µg/mL
PRESENT INVENTION cross reactivity ([2]; CDP-I 20 ug/mL): N.D. (Less than sensitivity at 2.00 ug/mL vancomycin)
PRESENT INVENTION VALUES ([2]; CDP-I 25 ug/mL): 0.18 µg/mL
PRESENT INVENTION cross reactivity ([2]; CDP-I 25 ug/mL): N.D. (Less than sensitivity at 2.00 ug/mL vancomycin)
PRESENT INVENTION VALUES ([2]; CDP-I 50 ug/mL): 0.67 µg/mL
PRESENT INVENTION cross reactivity ([2]; CDP-I 50 ug/mL): N.D. (Less than sensitivity at 2.00 ug/mL vancomycin)
PRESENT INVENTION [2, 4]: 40.86 µg/mL
PRESENT INVENTION % C.R. [2, 4]: N.D. (Less than sensitivity at 2.00 ug/mL vancomycin)
PRESENT INVENTION Diff/Sample-Control [2, 4]: -0.20 µg/mL
PRESENT INVENTION [2, 5]: 40.50 µg/mL
PRESENT INVENTION % C.R. [2, 5]: N.D. (Less than sensitivity at 2.00 ug/mL vancomycin)
PRESENT INVENTION Diff/Sample-Control [2, 5]: -0.54 µg/mL
PRESENT INVENTION [2, 6]: 39.13 µg/mL
PRESENT INVENTION % C.R. [2, 6]: N.D. (Less than sensitivity at 2.00 ug/mL vancomycin)
PRESENT INVENTION Diff/Sample-Control [2, 6]: -0.14 µg/mL
PRESENT INVENTION [2, 7]: 37.22 µg/mL
PRESENT INVENTION % C.R. [2, 7]: N.D. (Less than sensitivity at 2.00 ug/mL vancomycin)
PRESENT INVENTION Diff/Sample-Control [2, 7]: 0.24 µg/mL
PRESENT INVENTION % C.R. [2, 8]: N.D. (Less than sensitivity at 2.00 ug/mL vancomycin)
PRESENT INVENTION Diff/Sample-Control [2, 8]: -0.64 µg/mL
PRESENT INVENTION [2, 9]: 79.49 µg/mL
PRESENT INVENTION % C.R. [2, 9]: N.D. (Less than sensitivity at 2.00 ug/mL vancomycin)
PRESENT INVENTION Diff/Sample-Control [2, 9]: -0.50 µg/mL
PRESENT INVENTION [2, 10]: 74.41 µg/mL
PRESENT INVENTION % C.R. [2, 10]: N.D. (Less than sensitivity at 2.00 ug/mL vancomycin)
PRESENT INVENTION Diff/Sample-Control [2, 10]: -0.83 µg/mL
PRESENT INVENTION [2, 11]: 71.22 µg/mL
PRESENT INVENTION % C.R. [2, 11]: N.D. (Less than sensitivity at 2.00 ug/mL vancomycin)
PRESENT INVENTION Diff/Sample-Control [2, 11]: -0.26 µg/mL
cross-reactivity ([2]; vancomycin 0, 40, 80 μg/mL, cross reactants 0, 1, 10, 50, 100 μg/mL): less than 2%
COMMERCIAL ASSAY VALUES ([3]; CDP-I 1 ug/mL): 0.92 µg/mL
COMMERCIAL ASSAY cross reactivity ([3]; CDP-I 1 ug/mL): N.D. (Less than sensitivity at 2.00 ug/mL vancomycin)
COMMERCIAL ASSAY VALUES ([3]; CDP-I 2.5 ug/mL): 1.61 µg/mL
COMMERCIAL ASSAY cross reactivity ([3]; CDP-I 2.5 ug/mL): N.D. (Less than sensitivity at 2.00 ug/mL vancomycin)
COMMERCIAL ASSAY VALUES ([3]; CDP-I 5 ug/mL): 3.25 µg/mL
COMMERCIAL ASSAY cross reactivity ([3]; CDP-I 5 ug/mL): 65%
COMMERCIAL ASSAY VALUES ([3]; CDP-I 7 ug/mL): 4.54 µg/mL
COMMERCIAL ASSAY cross reactivity ([3]; CDP-I 7 ug/mL): 64.86%
COMMERCIAL ASSAY VALUES ([3]; CDP-I 10 ug/mL): 6.42 µg/mL
COMMERCIAL ASSAY cross reactivity ([3]; CDP-I 10 ug/mL): 64.2%
COMMERCIAL ASSAY VALUES ([3]; CDP-I 15 ug/mL): 8.87 µg/mL
COMMERCIAL ASSAY cross reactivity ([3]; CDP-I 15 ug/mL): 59.13%
COMMERCIAL ASSAY VALUES ([3]; CDP-I 20 ug/mL): 11.04 µg/mL
COMMERCIAL ASSAY cross reactivity ([3]; CDP-I 20 ug/mL): 55.20%
COMMERCIAL ASSAY VALUES ([3]; CDP-I 25 ug/mL): 12.94 µg/mL
COMMERCIAL ASSAY cross reactivity ([3]; CDP-I 25 ug/mL): 51.76%
COMMERCIAL ASSAY VALUES ([3]; CDP-I 50 ug/mL): 19.79 µg/mL
COMMERCIAL ASSAY cross reactivity ([3]; CDP-I 50 ug/mL): 39.58%
COMMERCIAL ASSAY [3, 4]: 39.99 µg/mL
COMMERCIAL ASSAY % C.R. [3, 4]: N.D. (Less than sensitivity at 2.00 ug/mL vancomycin)
COMMERCIAL ASSAY Diff/Sample-control [3, 4]: 1.05 µg/mL
COMMERCIAL ASSAY [3, 5]: 43.74 µg/mL
COMMERCIAL ASSAY % C.R. [3, 5]: 48%
COMMERCIAL ASSAY Diff/Sample-control [3, 5]: 4.80 µg/mL
COMMERCIAL ASSAY [3, 6]: 55.49 µg/mL
COMMERCIAL ASSAY % C.R. [3, 6]: 36.66%
COMMERCIAL ASSAY Diff/Sample-control [3, 6]: 18.33 µg/mL
COMMERCIAL ASSAY [3, 7]: 67.35 µg/mL
COMMERCIAL ASSAY % C.R. [3, 7]: 30.85%
COMMERCIAL ASSAY Diff/Sample-control [3, 7]: 30.85 µg/mL
COMMERCIAL ASSAY [3, 8]: 78.85 µg/mL
COMMERCIAL ASSAY % C.R. [3, 8]: N.D. (Less than sensitivity at 2.00 ug/mL vancomycin)
COMMERCIAL ASSAY Diff/Sample-control [3, 8]: -0.68 µg/mL
COMMERCIAL ASSAY [3, 9]: 83.34 µg/mL
COMMERCIAL ASSAY % C.R. [3, 9]: 38.1%
COMMERCIAL ASSAY Diff/Sample-control [3, 9]: 3.81 µg/mL
COMMERCIAL ASSAY % C.R. [3, 10]: HI ((>100))
COMMERCIAL ASSAY Diff/Sample-control [3, 10]: HI ((>100))
COMMERCIAL ASSAY ug/mL [3, 10]: HI ((>100))
COMMERCIAL ASSAY % C.R. [3, 11]: HI ((>100))
COMMERCIAL ASSAY Diff/Sample-control [3, 11]: HI ((>100))
COMMERCIAL ASSAY ug/mL [3, 11]: HI ((>100))

Compound: CNC(CC(C)C)C(=O)NC1C(=O)NC(CC(N)=O)C(=O)NC2C(=O)NC3C(=O)NC(C(=O)NC(C(=O)O)c4cc(O)cc(O)c4-c4cc3ccc4O)C(O)c3ccc(c(Cl)c3)Oc3cc2cc(c3OC2OC(CO)C(O)C(O)C2OC2CC(C)(NC(=O)CCCN(C(=O)c3c4ccccc4[n+](CCCS(=O)(=O)[O-])c4ccccc34)S(=O)(=O)c3ccc(C)cc3)C(O)C(C)O2)Oc2ccc(cc2Cl)C1O (centres unmarked) [compound 15]
Kd [1]: 1200 ± 100 nM
